In ChEMBL document CHEMBL1127144, “Cyclopentenones as potential inhibitors of penicillin sensitive enzymes” (Bioorg Med Chem Lett, 1993):
Active and inactive are the calls of the source.

How the values were obtained:
[1] = tested on: Escherichia coli; experiment: Compound was evaluated for antibacterial activity against Escherichia coli ESS; Inactive; assay type: functional, organism-based
[2] = target: T1, Beta-lactamase 1 (Bacillus cereus) (UniProt P00809); experiment: Compound was evaluated for the inhibitory activity against beta-lactamase of Bacillus cereus; Inactive
T1 sequence (whole entry): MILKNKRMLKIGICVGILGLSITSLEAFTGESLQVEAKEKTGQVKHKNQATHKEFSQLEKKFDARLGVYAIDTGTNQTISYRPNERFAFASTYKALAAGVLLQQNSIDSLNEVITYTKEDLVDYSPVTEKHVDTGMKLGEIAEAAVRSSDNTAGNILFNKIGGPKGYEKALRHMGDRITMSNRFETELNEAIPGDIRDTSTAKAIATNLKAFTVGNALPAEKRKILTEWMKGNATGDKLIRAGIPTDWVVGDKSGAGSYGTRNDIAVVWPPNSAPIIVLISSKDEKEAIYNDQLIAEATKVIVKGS

[3] = tested on: Enterococcus faecalis; experiment: Compound was evaluated for antibacterial activity against […] I; Inactive; assay type: functional, organism-based
[4] = tested on: Haemophilus influenzae; experiment: Compound was evaluated for antibacterial activity against Haemophilus influenzae Q1; Inactive; assay type: functional, organism-based
[5] = tested on: Streptococcus pyogenes; experiment: Compound was evaluated for antibacterial activity against Streptococcus pyogenes CN10; Inactive; assay type: functional, organism-based
[6] = tested on: Streptomyces; experiment: Compound was evaluated for the inhibitory activity against D, D-carboxypeptidase of Streptomyces R39; Inactive
[7] = target: Beta-lactamase (Enterobacter cloacae) (UniProt P05364); experiment: Compound was evaluated for the inhibitory activity against beta-lactamase of Enterobacter cloacae P99; Inactive
[8] = tested on: Streptococcus agalactiae; experiment: Compound was evaluated for antibacterial activity against Streptococcus agalactiae Hester; Inactive; assay type: functional, organism-based
[9] = target: Beta-lactamase (Streptomyces albus G) (UniProt P14559); experiment: Compound was evaluated for the inhibitory activity against beta-lactamase of Streptomyces albus G; Inactive
[10] = tested on: Bacillus subtilis; experiment: Compound was evaluated for antibacterial activity against Bacillus subtilis ATCC 6633; Inactive; assay type: functional, organism-based
[11] = tested on: Staphylococcus aureus; experiment: Compound was evaluated for antibacterial activity against Staphylococcus aureus Oxford; Inactive; assay type: functional, organism-based
[12] = tested on: Streptococcus pneumoniae; experiment: Compound was evaluated for antibacterial activity against Streptococcus pneumoniae 1761; Inactive; assay type: functional, organism-based
[13] = tested on: Pseudomonas aeruginosa; experiment: Compound was evaluated for antibacterial activity against Pseudomonas aeruginosa 447B-ES48; Inactive; assay type: functional, organism-based
[14] = tested on: mycobacterium catarrhalis; experiment: Compound was evaluated for antibacterial activity against Mycobacterium catarrhalis 1502; Inactive; assay type: functional
[15] = target: Beta-lactamase TEM (Escherichia coli) (UniProt P62593); experiment: Compound was evaluated for the inhibitory activity against beta-lactamase of Escherichia coli (TEM-1); Inactive

Measured: Activity

Sequence of Beta-lactamase (Enterobacter cloacae) (P05364 21-381 limits assumed): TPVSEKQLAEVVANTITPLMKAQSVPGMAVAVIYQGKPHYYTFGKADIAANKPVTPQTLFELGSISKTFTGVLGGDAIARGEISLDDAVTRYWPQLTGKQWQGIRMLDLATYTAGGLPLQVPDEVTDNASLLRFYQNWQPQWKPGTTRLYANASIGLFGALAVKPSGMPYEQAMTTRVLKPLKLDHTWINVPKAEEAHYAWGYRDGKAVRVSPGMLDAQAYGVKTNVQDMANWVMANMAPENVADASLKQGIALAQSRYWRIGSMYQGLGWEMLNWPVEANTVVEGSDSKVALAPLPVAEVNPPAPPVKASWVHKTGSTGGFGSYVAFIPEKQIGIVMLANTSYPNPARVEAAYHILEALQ
Sequence of Beta-lactamase (Streptomyces albus G) (P14559 whole entry, looked up): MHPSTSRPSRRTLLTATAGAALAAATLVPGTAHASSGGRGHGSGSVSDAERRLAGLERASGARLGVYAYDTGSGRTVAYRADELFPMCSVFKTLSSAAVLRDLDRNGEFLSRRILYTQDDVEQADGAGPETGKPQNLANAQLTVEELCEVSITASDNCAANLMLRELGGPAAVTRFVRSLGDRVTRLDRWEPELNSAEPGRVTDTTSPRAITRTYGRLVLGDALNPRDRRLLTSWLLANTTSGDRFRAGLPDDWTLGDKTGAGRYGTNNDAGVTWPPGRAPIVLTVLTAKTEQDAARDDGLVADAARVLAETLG
Sequence of Beta-lactamase TEM (Escherichia coli) (P62593 whole entry): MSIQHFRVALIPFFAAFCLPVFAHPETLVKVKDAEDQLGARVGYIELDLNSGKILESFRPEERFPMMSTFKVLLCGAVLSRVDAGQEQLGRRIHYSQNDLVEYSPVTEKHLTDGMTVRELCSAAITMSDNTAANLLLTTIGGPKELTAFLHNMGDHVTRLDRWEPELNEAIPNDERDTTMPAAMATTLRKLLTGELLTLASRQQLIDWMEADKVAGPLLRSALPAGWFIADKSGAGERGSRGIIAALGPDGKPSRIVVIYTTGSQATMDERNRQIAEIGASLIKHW

CO/N=C(/C(=O)NC1C=C(CC(=O)O)C(=O)C1)c1csc(N)n1 (stereo not given)
inactive: all assays above

O=C(O)CC1=CC(NC(=O)Cc2ccccc2)CC1=O (stereo not given)
inactive: all assays above

NC1C=C(CC(=O)O)C(=O)C1 (stereo not given)
inactive: all assays above
